{"source": "ChEMBL document CHEMBL3797158", "about": "“Discovery of potent, reversible MetAP2 inhibitors via fragment based drug discovery and structure based drug design-Part 1” (Bioorg Med Chem Lett, 2016)", "key": {"Cytochrome P450 1A2": {"target": "T1, Cytochrome P450 1A2 (Homo sapiens, UniProt P05177)", "T1 sequence (P05177 whole entry)": "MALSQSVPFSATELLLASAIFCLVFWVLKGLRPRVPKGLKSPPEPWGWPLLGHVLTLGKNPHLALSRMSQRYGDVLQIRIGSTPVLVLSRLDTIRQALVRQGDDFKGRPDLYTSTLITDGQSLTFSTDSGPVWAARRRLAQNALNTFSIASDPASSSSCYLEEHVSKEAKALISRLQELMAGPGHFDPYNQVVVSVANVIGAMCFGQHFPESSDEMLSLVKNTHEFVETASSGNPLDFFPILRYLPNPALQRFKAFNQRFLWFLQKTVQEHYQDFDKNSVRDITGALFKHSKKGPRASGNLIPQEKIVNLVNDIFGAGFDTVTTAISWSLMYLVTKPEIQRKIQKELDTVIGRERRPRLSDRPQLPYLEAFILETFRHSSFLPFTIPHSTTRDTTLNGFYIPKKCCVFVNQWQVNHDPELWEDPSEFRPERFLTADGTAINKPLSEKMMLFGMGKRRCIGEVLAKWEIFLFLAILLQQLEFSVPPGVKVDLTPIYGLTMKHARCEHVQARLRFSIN", "assay": "Inhibition of human CYP1A2 expressed in Escherichia coli DH5-alpha", "format": "ADME"}, "[1]": {"target": "Methionine aminopeptidase 2 (Homo sapiens, UniProt P50579)", "sequence (P50579 whole entry)": "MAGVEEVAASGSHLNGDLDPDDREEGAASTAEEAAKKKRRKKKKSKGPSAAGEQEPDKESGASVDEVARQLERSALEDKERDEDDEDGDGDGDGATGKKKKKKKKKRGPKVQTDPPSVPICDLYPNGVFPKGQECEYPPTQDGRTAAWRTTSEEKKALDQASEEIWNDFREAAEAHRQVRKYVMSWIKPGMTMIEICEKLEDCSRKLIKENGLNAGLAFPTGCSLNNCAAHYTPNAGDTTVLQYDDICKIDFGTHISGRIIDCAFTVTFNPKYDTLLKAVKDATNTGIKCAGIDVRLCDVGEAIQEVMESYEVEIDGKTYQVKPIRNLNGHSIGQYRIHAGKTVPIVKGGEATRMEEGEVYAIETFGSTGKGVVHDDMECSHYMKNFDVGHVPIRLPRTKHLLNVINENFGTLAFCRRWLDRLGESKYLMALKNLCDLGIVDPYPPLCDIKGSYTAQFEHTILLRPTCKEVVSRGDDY", "assay": "Inhibition of MetAP2 in HUVEC assessed as accumulation of N-Met-14-3-3gamma after 24 hrs by Western blot method", "format": "cell-based"}, "[2]": {"assay": "Volume of distribution in diet-induced obese mouse at 5 mg/kg, po or 1 mg/kg, iv", "format": "ADME, organism-based", "details": "in vivo"}, "Mus musculus [3]": {"system": "Mus musculus", "assay": "Oral bioavailability in diet-induced obese mouse at 5 mg/kg", "format": "ADME, organism-based", "details": "in vivo"}, "[4]": {"assay": "Half life in diet-induced obese mouse at 5 mg/kg, po or 1 mg/kg, iv", "format": "ADME, organism-based", "details": "in vivo"}, "Mus musculus [5]": {"system": "Mus musculus", "assay": "AUC in diet-induced obese mouse at 5 mg/kg, po", "format": "ADME, organism-based", "details": "in vivo"}, "Mus musculus [6]": {"system": "Mus musculus", "assay": "Antiobesity activity in po dosed diet-induced obese mouse assessed as body weight loss administered as qd for 28 days", "format": "functional, organism-based"}}, "note": "pEC50, pIC50: −log10 of the molar value.", "data": [{"smiles": "Cc1cc(C(=O)NCCO)ncc1-c1cc(C(F)(F)F)cc2[nH]ncc12", "values": [{"measurement": "pIC50", "setting": "Cytochrome P450 1A2", "value": "< 4.30"}]}, {"smiles": "COc1cc(C(=O)NCCO)ccc1-c1cc(C(F)(F)F)cc2[nH]ncc12", "values": [{"measurement": "pIC50", "setting": "Cytochrome P450 1A2", "value": "< 4.30"}]}, {"smiles": "CNC(=O)c1ccc(-c2cc(C(F)(F)F)cc3[nH]ncc23)c(OC)c1", "values": [{"measurement": "pIC50", "setting": "Cytochrome P450 1A2", "value": 4.80}]}, {"smiles": "FC(F)(F)c1cc(-c2ccc3nccn3c2)c2cn[nH]c2c1", "values": [{"measurement": "pIC50", "setting": "Cytochrome P450 1A2", "value": 6.50}]}, {"smiles": "O=C(NCCO)c1ccc(-c2cc(C(F)(F)F)cc3[nH]ncc23)c(F)c1", "values": [{"measurement": "pIC50", "setting": "Cytochrome P450 1A2", "value": "< 4.30"}]}, {"smiles": "Cc1nc(N2CC[C@H](O)C2)ncc1-c1cc(C(F)(F)F)cc2[nH]ncc12", "values": [{"measurement": "pIC50", "setting": "Cytochrome P450 1A2", "value": "< 4.30"}, {"measurement": "pEC50", "setting": "[1]", "value": 6.92}]}, {"smiles": "Cc1nc(N2CC[C@@H](O)C2)ncc1-c1cc(C(F)(F)F)cc2[nH]ncc12", "note": "[TP-004]", "values": [{"measurement": "pIC50", "setting": "Cytochrome P450 1A2", "value": "< 4.30"}, {"measurement": "Vd", "setting": "[2]", "value": 1.25, "unit": "L/kg"}, {"measurement": "F", "setting": "Mus musculus [3]", "value": 58, "unit": "%"}, {"measurement": "pEC50", "setting": "[1]", "value": 7.82}, {"measurement": "half-life", "setting": "[4]", "value": 2, "unit": "h"}, {"measurement": "AUC", "setting": "Mus musculus [5]", "value": 15084, "unit": "ng·h/mL"}, {"measurement": "Activity", "setting": "Mus musculus [6]", "value": "Dose-dependent effect"}]}]}
